Laboratory results: paper PMC8049054, “Systematic Assessment of Fragment Identification for Multitarget Drug Design” (Chemmedchem, 2021)

Key:
[1] = tested on: T1, RXRα; assay: Differential scanning fluorimetry (DSF) screen on RXRα; type: binding; details: 500 μM fragment, mean of duplicates
T1 construct: MBP (N, cleaved yes); poly-N-tag, His8-tag, TEV site (N, cleaved yes); made in house; host or cells: E. coli T7-express with pGro7 (GroEL/ES)
Source text: (§1) For the primary screen of this fragment library, we employed differential scanning fluorimetry (DSF, also known as thermal shift). DSF is generally applicable to a large panel of protein targets and provides a robust, low‐cost screening technology for fragment‐based approaches. ^[20] All five proteins of our interest are soluble and were recombinantly expressed in Escherichia coli. We performed an initial fragment screen on all five targets by DSF. The use of a uniform screening method for all targets ensured consistent data and provided the opportunity to identify false positive hits which interfered with the screening technology. The conditions of the DSF assay were optimized for the desired screening and validated with reference compounds (Table S1 in the Supporting Information). Compounds causing a positive thermal shift ΔT m≥1.0 °C were considered as active.
(§2) DSF measurement of the PDFL (single concentration of 500 μM, duplicates, 96‐well format) on the five proteins retrieved 19 fragment hits on sEH, 28 on LTA4H, 12 on 5‐LOX, 16 on RXRα, and 14 on FXR, respectively. Melting point distributions of the screening library for all five targets are depicted in Figure 2. Amongst the hits, three compounds (Table S2) gave a positive signal on all five proteins likely qualifying them as pan assay interference compounds (PAINS). ^[21] Fragments binding to multiple targets (Scheme 1) were identified for seven out of ten target combinations (Figure 2, Table 1). Among them, fragments 4, 6, 7, and 9 match previously identified privileged scaffolds for fatty acid mimetics. ^[14] […] Active ligands containing N‐phenylbenzamide 6 and the N‐phenylbenzylamine 7 have been described for four of the protein targets. Furthermore, indole, which has been characterized as a privileged heterocycle for fatty acid mimetics, ^[14] is present in fragments 5 and 10. Dual 5‐LOX/RXR ligand 1 was present in 5‐LOX inhibitors, while dual FXR/LTA4H modulator 3 is found among known FXR ligands. Fragments 2 (sEH/5‐LOX) and 8 (LTA4H/RXR) are novel scaffolds not appearing in known ligands of any of the five targets.
(§3) Figure S3: SDS page of the purified proteins (proteins RXRα and FXR after TEV cleavage) using a 14% polyacrylamide gel, which was stained with coomassi. Precision Plus Protein™ Unstained Protein Standard s (Bio-Rad Laboratories, Inc. ) was used […]
(§4) All experiments were performed as duplicates using MicroAmp fast 96 -well plates. Each plate contained 80 different compound wells and 16 DMSO control wells. First 0.8 µl of a 25 mM Preswick Library Fragment dilution in DMSO or pure DMSO were placed in each of the well (final concentration 500 µM). Then 39.2 µl of the master mi x (containing protein, Triton x -100, SYPRO® Orange Protein Gel Stain and buffer that corresponds to the tested protein) were added.
(§5) Table S4: Final concentrations in DSF experiments: […]
(§6) The measurements were performed using a iCycler iQ™ Single -Color Real Time PCR device with a heat rate of 1 °C per min, an excitation wavelength of 490 nm and an emission wavelength of 570 nm. The first derivation calculated by MyiQ Op tical Software 1.0 was analyzed using Microsoft Office Excel 2013 by comparing the maxima. A shift of 1 °C (in case of 5 -LOX 0.9°C) or more compared to the DMSO control were assumed as potentially binding of the fragment.
(§7) (1 picture or pasted object on this page, not shown here)

[2] = molecular target: T2, 5‐lipoxygenase (5‐LOX) (Homo sapiens, UniProt P09917); assay: Differential scanning fluorimetry (DSF) screen on 5-LOX; type: binding; details: 500 μM fragment, mean of duplicates
T2 construct: made in house; host or cells: E. coli BL21 (DE3)
T2 sequence (P09917 1-674): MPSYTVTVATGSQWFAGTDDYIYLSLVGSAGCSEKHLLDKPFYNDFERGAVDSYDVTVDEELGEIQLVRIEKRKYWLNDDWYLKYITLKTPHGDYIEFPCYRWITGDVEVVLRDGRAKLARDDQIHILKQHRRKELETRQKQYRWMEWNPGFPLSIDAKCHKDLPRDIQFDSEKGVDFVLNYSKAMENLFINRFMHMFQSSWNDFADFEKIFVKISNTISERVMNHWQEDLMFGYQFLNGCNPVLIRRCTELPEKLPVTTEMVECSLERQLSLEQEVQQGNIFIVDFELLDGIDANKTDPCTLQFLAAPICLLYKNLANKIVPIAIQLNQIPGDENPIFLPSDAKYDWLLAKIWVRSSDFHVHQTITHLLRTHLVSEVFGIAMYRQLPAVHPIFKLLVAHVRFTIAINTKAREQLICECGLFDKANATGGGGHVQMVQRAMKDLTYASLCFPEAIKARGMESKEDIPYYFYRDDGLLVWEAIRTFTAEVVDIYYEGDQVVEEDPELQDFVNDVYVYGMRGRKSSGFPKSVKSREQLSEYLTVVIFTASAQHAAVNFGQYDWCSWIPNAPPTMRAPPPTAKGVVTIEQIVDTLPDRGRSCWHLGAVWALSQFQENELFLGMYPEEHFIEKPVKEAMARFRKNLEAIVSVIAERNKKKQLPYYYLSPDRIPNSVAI
Source text: as §1, §2, §3, §4, §5
5-LOX 500 µM compound, 3.5 µM protein, 0.87x DPBS, 0.87 mM EDTA, 0.01% (W/V) Triton X-100, 2.1% DMSO and 5x SYPRO® with a pH = 7.5 […]
as §6, §7

| SMILES | DSF/ΔT m RXRα [1] [°C] | DSF/ΔT m 5‐LOX [2] [°C] |
| --- | --- | --- |
| Oc1ccc2cc[nH]c2c1 [Compound 5] | 0.8±0.7 | −0.1±0.0 |
| Cc1cc(=O)n(-c2ccc(C)c(C)c2)[nH]1 [Compound 2] | −9.5±24.0 | 1.1±0.0 |
| c1ccc(N2CCNCC2)nc1 [Compound 1] | 1.1±0.0 | 0.9±0.0 |
| Oc1ccc(-c2ccc(F)cc2F)cc1 [Compound 9] | 2.3±0.0 | −1.1±0.0 |
| Cc1ccccc1C(=O)Nc1ccccc1 [Compound 6] | −1.0±0.7 | −1.4±2.1 |
| Clc1ccc2c(c1)Nc1ccccc1CC2 [Compound 8] |  | −0.1±0.0 |
| Fc1ccc(-c2c[nH]c3ccccc23)cc1 [Compound 10] | 1.9±0.0 | 0.9±0.0 |
| CCCCOc1cc(C(=O)OC)ccc1N [Compound 3] | −2.9±0.0 | −1.1±0.0 |
| CCN(Cc1ccccc1)c1ccccc1 [Compound 7] | −0.4±0.7 | 0.9±0.0 |
| Oc1ccc(Cc2ccccc2)cc1 [Compound 4] | −2.4±0.7 | −1.1±0.0 |
